Reference: patent US8563715B2, “Pyrimidine derivative having cell protecting effect and uses thereof” (Zenyaku Kogyo Kabushikikaisha, priority 2008, dated 2013)

Tests used:
[1] = tested on: rat brain homogenate (lipid peroxide production); test: Antioxidant activity test (rat brain homogenate autoxidation test); format: biochemical; settings: lipid peroxide production suppression, 2 hours at 37 degrees Celsius, thiobarbituric acid method
Procedure: The cerebrum was removed from 7 to 11 week old male Wistar rats (Nihon Ikagaku) or male Sprague-Dawley (IGS) rats (Charles River), physiological saline was added, and a 20% brain homogenate was made. 4 μl of test compound dissolved in DMSO was mixed with 200 μl of brain homogenate and 200 μl of PBS (−) (diluted 100 times), incubated for 2 hours at 37 degrees Celsius and shaken at a rate of 160 times per minute, thereby producing a lipid peroxide. After cooling for 5 minutes, the produced lipid peroxide was measured as a thiobarbituric acid reactive substance by using the thiobarbituric acid method. Briefly, 100 μl of 8.1% dodecyl sulfate, 750 μl of 20% acetic acid adjusted to a pH of 3.5, and 750 μl of 0.8% thiobarbituric acid were added, and boiled for 60 minutes, and then cooled. Next, 500 μl of distilled water and 2.5 ml of N-butanol/pyridine (15:1) were added and after 5 minutes of shaking, the supernatant was taken after centrifuging for 10 minutes at 3000 rpm, and the absorbance at 532 nm was measured. The number of examples was 2 examples. Calculation was done of the (absorbance at each concentration/absorbance of a solvent control)×100, and after logit transformation, the lipid peroxide production suppression effect (IC 50 value) was calculated as an indicator of antioxidant activity.

[2] = tested on: neurons in astrocyte/neuron co-culture; test: Brain cell damage induced by hydrogen peroxide treatment (neuroprotective effect, microscope observation); format: cell-based; settings: Rattus norvegicus, hydrogen peroxide (250 μM), 24 hours, read-out: Concentration for complete inhibition of neuronal death
Procedure: (§1) The brain was removed from 1 to 2 day old Wistar rats (Charles River) or Sprague-Dawley (IGS) rats (Charles River), and the cerebral cortex including the hippocampus was excised under ice cooling. After this cerebral cortex was minced, it was digested with papain solution (9 U/ml) containing DNase I (30 U/ml) at 37 degrees Celsius for 15 minutes, dispersing the cells. After further carrying out mechanical dispersing by pipetting, it was passed through a cell strainer with a pore size of 70 μm, and a cell suspension was obtained. Cells derived from 1.4 cerebra were seeded on 150 mm tissue culture dish (Iwaki Glass), and primary culture was carried out at 37 degrees Celsius and 5% CO2 using a D-MEM medium (Invitrogen) containing 10% heat-inactivated fetal calf serum (JRH). One day after the start of the culture, the nonadherent cells were removed, and the primary cultured astrocytes were obtained by continuing the culture for 4 to 5 further days. The primary cultured astrocytes were dispersed by trypsin treating, suspended in cryopreservation solution, and cryopreserved.
(§2) After thawing the cryopreserved primary cultured astrocytes, they were seeded on tissue culture plates (Iwaki Glass), and a confluent astrocyte layer was produced by a further 7 days of secondary culture using a D-MEM medium containing 10% heat-inactivated fetal calf serum. Neurons to be used in the co-culture with the astrocyte layer were obtained from fetal rat cerebrum. Briefly, brains were removed from Wistar rats (Charles River) or Sprague-Dawley (IGS) rats (Charles River) of embryonic age 18.5 days, and the cerebral cortex including the hippocampus was excised under ice cooling. After this cerebral cortex was minced, it was digested in papain solution (9 U/ml) containing DNase I (30 U/ml) at 37 degrees Celsius for 15 minutes, dispersing the cells. After further carrying out mechanical dispersing by pipetting, it was passed through a cell strainer with a pore size of 70 μm, and a cell suspension was obtained. This cell suspension was plated at a density of 1.3×10^5 cells/cm^2 on the astrocyte layer, and a co-culture was carried out using D-MEM/F-12 medium (Invitrogen) containing 10% heat-inactivated fetal calf serum and 5% horse serum (Invitrogen). 2 days after the start of the co-culture, cells were treated for 24 hours with 10 μM cytosine arabinoside in order to suppress the excessive cell proliferation of microglia and the like. 8 to 9 days after the start of the co-culture, cells were used for the test. Additionally, using one portion of the cells, immunofluorescent staining and nuclear staining was carried out with astrocyte recognizing antibodies (anti-GFAP) and neuron recognizing antibodies (anti-MAP2), in order to confirm that the present culture system is a co-culture system of astrocytes and neurons.
(§3) An astrocyte/neuron co-culture cultured on a 96 well plate was used in the test. A predetermined concentration of the test substance and hydrogen peroxide (250 μM) was simultaneously added to the cell culture in each well with continuing cultivation, and analysis was done 24 hours after this treatment. Using an LDH Cytotoxicity Detection Kit (Takara Bio), analysis was carried out in accordance with the included instruction manual, and the damage to the entire co-culture system by the hydrogen peroxide treatment and the protective effect (EC 50 value) of the test substance was evaluated. Further, the cell bodies and the neuronal processes of the neurons were observed by microscope, and the neuroprotective effect was evaluated.

[3] = tested on: astrocyte/neuron co-culture; test: Brain cell damage induced by hydrogen peroxide treatment (LDH assay); format: cell-based; settings: Rattus norvegicus, hydrogen peroxide (250 μM), 24 hours, read-out: 50% inhibition concentration against cell damage in entire co-culture system (EC50 value)
Procedure: as §1, §2, §3

SMILES | IC50 [1] [nM] | EC100 [2] [µM] | EC50 [3] [nM]
CN(C)c1nc(N2CCC(Cc3ccccc3)CC2)nc(N2CCSCC2)c1N [Compound 69, 5-amino-2-(4-benzylpiperidin-1-yl)-4-dimethylamino-6-thiomorpholinopyrimidine] | 1260 | 3 | 290
Fc1c(N2CCOCC2)nc(N2CCN(c3ccccc3)CC2)nc1N1CCOCC1 [Compound 82, 5-fluoro-4,6-dimorpholino-2-(4-phenylpiperazin-1-yl)pyrimidine] | 9200 | 3 | 600
Fc1c(N2CCOCC2)nc(N2CCOCC2)nc1N1CCc2ccccc2C1 [Compound 87, 5-fluoro-4-(3,4-dihydro-1H-isoquinolin-2-yl)-2,6-dimorpholinopyrimidine] | 5780 | 3 | 680
Fc1c(N2CCOCC2)nc(N2Cc3ccccc3C2)nc1N1CCOCC1 [Compound 89, 5-fluoro-2-(isoindolin-2-yl)-4,6-dimorpholinopyrimidine] | 3480 | 3 | 530
CN(C)c1nc(N2CCOCC2)c(F)c(N2CCN(c3ccccn3)CC2)n1 [Compound 91, 2-dimethylamino-5-fluoro-6-morpholino-4-[4-(pyridin-2-yl)piperazin-1-yl]pyrimidine] | 5880 | 10 | 880
Fc1c(N2CCOCC2)nc(N2CCOCC2)nc1N1CCNC(c2ccccc2)C1 (stereo not drawn) [Compound 94, 5-fluoro-2,4-dimorpholino-6-(3-phenylpiperazin-1-yl)pyrimidine] | 16000 | 3 | 680
Cc1ccc(N2CCN(c3nc(N4CCOCC4)nc(N4CCOCC4)c3F)CC2)cc1 [Compound 99, 5-fluoro-4-[4-(4-methylphenyl)piperazin-1-yl]-2,6-dimorpholinopyrimidine] | 7510 | 1 | 400
Cc1cccc(N2CCN(c3nc(N4CCOCC4)c(F)c(N4CCOCC4)n3)CC2)c1C [Compound 105, 5-fluoro-4,6-dimorpholino-2-[4-(2,3-xylyl)piperazin-1-yl]pyrimidine] | 2770 | 1 | 290
CN(C)c1nc(N2CCOCC2)c(F)c(N2CCN(c3ccccc3Cl)CC2)n1 [Compound 110, 4-[4-(2-chlorophenyl)piperazin-1-yl]-2-dimethylamino-5-fluoro-6-morpholinopyrimidine] | 3020 | 1 | 330
Fc1c(N2CC=C(c3ccccc3)CC2)nc(N2CCOCC2)nc1N1CCOCC1 [Compound 121, 5-fluoro-2,4-dimorpholino-6-(4-phenyl-1,2,5,6-tetrahydropyridin-1-yl)pyrimidine] | 5050 | 1 | 320
Fc1c(N2CCOCC2)nc(N2CCc3ccccc3C2)nc1N1CCOCC1 [Compound 122, 5-fluoro-4,6-dimorpholino-2-(1,2,3,4-tetrahydro-2H-isoquinolin-2-yl)pyrimidine] | 5480 | 1 | 290
COc1ccc(C=Cc2nc(N3CCOCC3)c(N)c(N3CCOCC3)n2)cc1 [Compound 131, 5-amino-2-[2-(4-methoxyphenyl)vinyl]-4,6-dimorpholinopyrimidine] | 7040 | 10 | 8990
Cn1c(/C=C/c2nc(N3CCOCC3)c(N)c(N3CCOCC3)n2)cc2sccc21 [Compound 133, 5-amino-2-[2-(4-methylthiopheno[1,2-b]pyrrol-5-yl)vinyl]-4,6-dimorpholinopyrimidine] | 1040 | 30 | 2030
Nc1c(N2CCOCC2)nc(/C=C/c2ccc(N3CCCCC3)cc2)nc1N1CCOCC1 [Compound 136, 5-amino-4,6-dimorpholino-2-[2-(4-piperidinophenyl)vinyl]pyrimidine] | 1690 | 3 | 730
CNc1nc(/C=C/c2ccc(OC)cc2)nc(N2CCOCC2)c1N [Compound 139, 5-amino-2-[2-(4-methoxyphenyl)vinyl]-4-methylamino-6-morpholinopyrimidine] | 110 | 3 | 1150
COc1ccc(/C=C/c2nc(N(C)C)c(N)c(N(C)C)n2)cc1 [Compound 140, 5-amino-4,6-bis(dimethylamino)-2-[2-(4-methoxyphenyl)vinyl]pyrimidine] | 550 | 10 | 5150
Nc1ccc(N2CCN(c3nc(N4CCOCC4)nc(N4CCOCC4)c3F)CC2)cc1 [Compound 146, 4-[4-(4-aminophenyl)piperazin-1-yl]-5-fluoro-2,6-dimorpholinopyrimidine] | 1910 | 3 | 960
Cc1ccc(N2CCN(c3nc(N4CCNCC4)nc(N4CCOCC4)c3F)CC2)cc1 [Compound 149, 5-fluoro-4-[4-(4-methylphenyl)piperazin-1-yl]-6-morpholino-2-(1-piperazinyl)pyrimidine] | 9750 | 10 | 420
COc1ccc(/C=C/c2nc(N3CCNCC3)c(N)c(N3CCOCC3)n2)cc1 [Compound 170, 5-amino-2-[2-(4-methoxyphenyl)vinyl]-4-morpholino-6-(1-piperazinyl)pyrimidine] | 3100 | 3 | 990
COc1ccc(/C=C/c2nc(NCCN3CCNCC3)c(N)c(N3CCOCC3)n2)cc1 [Compound 173, 5-amino-2-[2-(4-methoxyphenyl)vinyl]-4-morpholino-6-[2-(1-piperazinyl)ethylamino]pyrimidine] | 2080 | 30 | 4720
COc1ccc(/C=C/c2nc(N3CCOCC3)c(N)c(N3CCN(CCN(C)C)CC3)n2)cc1 [Compound 175, 5-amino-2-[2-(4-methoxyphenyl)vinyl]-4-[4-(2-dimethylaminoethyl-piperazin-1-yl)]-6-morpholinopyrimidine] | 2080 | 10 | 3240
COc1ccc(/C=C/c2nc(N3CCOCC3)c(N)c(N3CCN(C(=O)CN)CC3)n2)cc1 [Compound 176, 5-amino-4-(4-aminomethylcarbonylpiperazin-1-yl)-2-[2-(4-methoxyphenyl)vinyl]-6-morpholinopyrimidine] | 2160 | 10 | 2740
COc1ccc(/C=C/c2nc(N3CCOCC3)c(N)c(N3CCC(N)CC3)n2)cc1 [Compound 196, 5-amino-4-(4-aminopiperidin-1-yl)-2-[2-(4-methoxyphenyl)vinyl]-6-morpholinopyrimidine] | 2730 | 10 | 3780
COc1ccc(/C=C/c2nc(NCC(=O)OC(C)(C)C)c(N)c(N3CCOCC3)n2)cc1 [Compound 197, 5-amino-4-(4-tert-butoxycarbonylmethylamino)-2-[2-(4-methoxyphenyl)vinyl]-6-morpholinopyrimidine] | 990 | 3 | 550
